Where no end group is shown, it is not given here.
Test: Secondary structure analysis by circular dichroism (helical content)
Format: physicochemical
Conditions: for Helical content (%) 30% TFE: PBS containing 30% trifluoroethanol, 50 μM peptide; for Helical content (%) PBS: PBS pH 7.0, 50 μM peptide
Procedure: The secondary structures of peptides synthesized in the above Example were analyzed by means of circular dichroism and the circular dichroism spectra of synthesized peptides were analyzed by using 715 CD spectropolarimeter (Jasco Co., Ltd., JAPAN). The peptides of WT(SEQ ID NO. 4), MT(SEQ ID NO. 5), Ncap-MT(SEQ ID NO. 7), Caps-WT(SEQ ID NO. 8), Caps-MT(SEQ ID NO. 9) were dissolved in PBS(pH 7.0) with 100 mM sodium phosphate and 150 mM NaCl to make the final concentration of each peptide 50 μM and were placed for spectrum analyses.
(2)Analyses of Secondary Structures of Peptides in Phosphate Buffered Saline (PBS) containing Trifluoroethanol Experiments were performed the same as described in the above Experimental Example 1 (1) with the exception that the PBS contained 30% trifluoroethanol.

Row | Substance | Helical content (%) 30% TFE [%] | Helical content (%) PBS [%]
1 | WMEWDREINNYTSLIHSLI [WT] | 24 | 18
2 | APKEWMEWDREINNYTSLIHSLIKQGI-NH2 [Caps-WT] | 77 | 21
3 | APKEWMAWAREIAAYAKLIAALI-NH2 [Ncap-MT, APKEWMaWaREIaaYakLIaaLI] | 68 | 69

From patent publication US6489449B2, “Peptides for inhibition of HIV infection” (priority 2000, dated 2002)
